Results reported in US10768157B2, “Materials and methods for the detection of trace amounts of substances in biological and environmental samples” (THE FLORIDA INTERNATIONAL UNIVERSITY BOARD OF TRUSTEES, priority 2015, dated 2020).
Where two headings read alike, the source gives them in different places.

Assays:
[1] = Selectivity: imprinting factor of multi-template sol-gel MIP vs NIP; type: binding; conditions: extraction from protein precipitated milk
Experimental: The selectivity of MIP particles for the six sulfonamides was tested. For these experiments were used SPE cartridges packed with 30 mg of MIP and NIP particles respectively. Standard solutions containing 5 ng μL^−1 were passed through the SPE cartridges by holding imprinted or non-imprinted particles at a flow rate of 1 mL/min by the aid of a vacuum system. Several antibiotics have similar structure to the sulfonamides as well as antibiotics with different structure and functional groups were studied (chloramphenicol, thiamphenicol, florphenicol, flumequine, sulfisoxazole, sulfamethoxazole, sulfadimethoxine). The extraction on each antibiotic based on the optimum conditions and the extracted antibiotics were determined by the HPLC system. Imprinting factor (IF) of MIP particles was determined by the following equation: […] Capacity Studies […] So, SPE was prepared for MIP and NIP. Imprinting factor (IF), which is an indicators, express the adsorption affinity of recognition sites to the imprinted sulfonamides. Table 12 summarizes the IF values for the examined sulfonamides when extraction was carried out from protein precipitated milk.

[2] = Maximum adsorption capacity of the sol-gel molecularly imprinted sorbent (six sulfa drugs); type: binding; conditions: 30 mg MIP, mixture of 6 sulfa drugs 10-1000 mg/L
Experimental: In order to calculate the sorption capacity at equilibrium a SPE cartridge packed with 30 mg of MIP particles was used. Experiments under optimum conditions were carried out sequentially on the same SPE cartridge. In each subsequent test, the initial concentration was increased in a range 10-1000 ng μL^-1 and the final concentration was determined by HPLC-DAD. The amount of adsorbed (mg/g) was calculated by using the formula reported by Vanderborght and Van […]:00002} Were Ci is the initial concentration (mg/L), Ce is the equilibrium concentration (mg/L), V is the volume (L) and m is the mass (g) of the adsorbent. […] The final Ce concentrations were calculated on HPLC. The maximum capacity (Q, mg/g) for each of the six compounds was determined with the above equation. The results are represented in FIG. 12.

[3] = Selectivity study of CAP-imprinted sol-gel MIP vs sol-gel NIP in MIPSPE column (imprinting factor, selectivity coefficient), HPLC-UV; type: binding; conditions: for Selectivity Coefficient (SC): SC=IF CAP/IF other analyte, untreated raw milk; for Imprinting Factor (IF): extraction from untreated raw milk, sol-gel MIP vs NIP
Text: To establish the selectivity of a sol-gel MIP for a particular analyte, a non-imprinted polymer (sol-gel NIP) is synthesized in the same way as sol-gel MIP but in the absence of the template.
The IF reflects the tendency of the MIP to selectively recognize and bind the template. Competitive adsorption of MIP and NIP for CAP was investigated in a MIPSPE column system. The IF and the selectivity coefficient (SC) are indicators of the adsorption affinity of recognition sites to the imprinted CAP.
The selectivity of sol-gel MIP particles for CAP was studied. For this purpose, 30 mg of sol-gel MIP or sol-gel NIP particles were packed in SPE cartridges. Aqueous sample solutions containing 10 ng/mL CAP was passed through the SPE cartridges holding imprinted or non-imprinted particles at a flow rate of 1 mL/min by the aid of a vacuum system. Elution of the extracted chloramphenicol was performed using methanol and the concentration of chloramphenicol was determined by the HPLC-UV method.
Imprinting factor (IF) of sol-gel MIP particles was determined by the following equation: IF=Kmip/Knip where Kmip and Knip are the partition coefficient of analyte for sol-gel MIP and sol-gel NIP, respectively, which are determined by K=Cb/Cu where Cb is the amount of CAP bound by the sol-gel MIP or sol-gel NIP and Cu is the concentration of free chloramphenicol that remained in the solution.
Selectivity coefficient (SC) was calculated by the following equation: SC=IFCAP/IFother_analyte

[4] = Retention (sorption) capacity of the CAP-imprinted sol-gel sorbent; type: binding; conditions: 30 mg polymer saturated with 100 mg/L CAP solution
Experimental: To determine the retention capacity (or sorption capacity) of the sol-gel derived CAP-imprinted polymer (maximum amount of the template retained by 1 g of MIP), 30 mg of polymer were saturated with CAP by passing several 5.0 mL aliquots of 100 mg/L CAP solution.

[5] = Stability of CAP standard solutions; type: physicochemical
[6] = cited from earlier work
[7] = Honey, Magnetic SPE, LC-MS/MS (ref a)

Compound | Imprinting Factor (IF) [1] | Adsorption Capacity, Q [2] [mg/g] | Imprinting Factor (IF) [3] | further results
CC(=O)NS(=O)(=O)c1ccc(N)cc1 [Sulfacetamide] | 2.70 | 5.1 | – | –
florfenicol [FFC] | – | – | 1.8 | Selectivity Coefficient (SC) [3]: 2.8
Nc1ccc(S(=O)(=O)Nc2nccs2)cc1 [Sulfathiazole] | 3.90 | 9.8 | – | –
Nc1ccc(S(N)(=O)=O)cc1 [Sulfanilamide] | 1.56 | – | – | –
Nc1ccc(S(=O)(=O)Nc2ncccn2)cc1 [Sulfadiazine] | 1.70 | 4.2 | – | –
CS(=O)(=O)c1ccc([C@@H](O)[C@@H](CO)NC(=O)C(Cl)Cl)cc1 [THF, thiamphenicol] | – | – | 1.9 | Selectivity Coefficient (SC) [3]: 2.6
Cc1ccnc(NS(=O)(=O)c2ccc(N)cc2)n1 [Sulfamerazine] | 1.13 | 3.7 | – | –
Sulfamethizole | 4.52 | – | – | –
Chloramphenicol [CAP] | – | – | 5 | Retention capacity / adsorption capacity of CAP [4]: 23 mg/g; Retention capacity / adsorption capacity of CAP ([4]; listed as chloramphenicol): 23.0 mg/g; Stability of working standard solutions ([5]; 0.05-20 ng/μL in water, refrigerated): stable for the same period of time; Stability of stock solution ([5]; 100 mg/L in water, kept at 4° C.): at least 3 months; Imprinting factor (IF), maximum ([3]; CAP, protein precipitated milk, MIP relative to NIP): 9.7; Imprinting Factor ([6]; Honey, MISPE, HPLC-UV (ref f)): 2.2; Adsorption Capacity [6, 7]: 5.53 mg/g; Imprinting Factor [6, 7]: 1.375; Imprinting Factor ([6]; Honey/Urine, MISPE, LC-MS/MS (ref d)): 2.43; Adsorption Capacity ([6]; Milk, MISPE, HPLC-UV (ref e)): 2.22 mg/g; Imprinting Factor ([6]; Milk, MISPE, HPLC-UV (ref e)): 1.38
